What was measured:
[1] = target: T1, Peroxisome proliferator-activated receptor delta (Homo sapiens, UniProt Q03181)
T1 sequence (Q03181 whole entry): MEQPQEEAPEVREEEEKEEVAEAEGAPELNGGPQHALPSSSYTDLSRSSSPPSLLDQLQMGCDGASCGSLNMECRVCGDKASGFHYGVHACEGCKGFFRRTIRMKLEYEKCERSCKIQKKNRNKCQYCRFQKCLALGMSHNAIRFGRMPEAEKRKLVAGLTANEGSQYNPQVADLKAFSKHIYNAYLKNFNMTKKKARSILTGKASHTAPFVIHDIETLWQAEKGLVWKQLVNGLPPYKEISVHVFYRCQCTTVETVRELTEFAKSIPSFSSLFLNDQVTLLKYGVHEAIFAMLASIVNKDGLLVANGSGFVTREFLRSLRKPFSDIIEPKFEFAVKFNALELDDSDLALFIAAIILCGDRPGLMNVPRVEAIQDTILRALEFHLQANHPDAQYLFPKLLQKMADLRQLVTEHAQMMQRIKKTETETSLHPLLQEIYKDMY

[2] = target: T2, Peroxisome proliferator-activated receptor alpha (Homo sapiens, UniProt Q07869); assay: Agonist activity at PPARalpha ligand binding domain expressed in human HeLa cells co-transfected with Gal4-DBD assessed as transcriptional activation by Gal4 response element-driven luciferase reporter gene assay; format: cell-based
T2 sequence (Q07869 whole entry): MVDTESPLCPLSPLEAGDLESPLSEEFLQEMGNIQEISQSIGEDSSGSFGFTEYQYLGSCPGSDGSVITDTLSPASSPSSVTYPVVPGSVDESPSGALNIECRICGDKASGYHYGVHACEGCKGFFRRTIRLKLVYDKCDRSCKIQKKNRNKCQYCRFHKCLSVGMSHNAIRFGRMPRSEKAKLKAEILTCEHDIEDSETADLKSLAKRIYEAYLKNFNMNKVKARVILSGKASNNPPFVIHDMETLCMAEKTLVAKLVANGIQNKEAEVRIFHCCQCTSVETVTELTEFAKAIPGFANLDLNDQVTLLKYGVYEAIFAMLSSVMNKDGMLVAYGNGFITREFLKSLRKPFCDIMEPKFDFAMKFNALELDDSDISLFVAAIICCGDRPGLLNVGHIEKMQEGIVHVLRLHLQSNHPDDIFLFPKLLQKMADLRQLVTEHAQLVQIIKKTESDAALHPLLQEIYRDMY

[3] = target: T3, Peroxisome proliferator-activated receptor gamma (Homo sapiens, UniProt P37231); format: cell-based, HeLa
T3 sequence (P37231 whole entry): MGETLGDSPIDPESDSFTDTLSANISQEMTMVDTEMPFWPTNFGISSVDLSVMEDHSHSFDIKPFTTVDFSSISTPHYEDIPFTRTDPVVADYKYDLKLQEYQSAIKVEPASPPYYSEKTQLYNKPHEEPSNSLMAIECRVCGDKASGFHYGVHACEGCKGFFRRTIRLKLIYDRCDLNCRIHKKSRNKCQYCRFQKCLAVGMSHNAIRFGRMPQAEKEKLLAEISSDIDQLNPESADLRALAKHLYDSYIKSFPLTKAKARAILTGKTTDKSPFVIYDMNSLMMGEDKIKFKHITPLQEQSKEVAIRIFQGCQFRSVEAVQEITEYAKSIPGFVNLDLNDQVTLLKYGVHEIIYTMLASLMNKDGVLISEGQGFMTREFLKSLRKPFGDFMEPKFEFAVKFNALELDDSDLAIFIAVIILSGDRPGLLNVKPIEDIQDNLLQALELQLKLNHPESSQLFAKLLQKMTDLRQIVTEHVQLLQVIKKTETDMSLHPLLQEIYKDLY

EC50 [1] [nM] | EC50 [2] [nM] | EC50 [3] [nM] | SMILES
2000 | 500 | 8000 | CCCCCCC#CC1=CC(=O)[C@H](CCCCCCC)[C@H]1OCCCCCC(=O)O (relative stereo)
> 10000 | 500 | 4000 | CCCCCCC#CC1=CC(=O)[C@H](CCCCCCC)[C@@H]1OCCCCCC(=O)O (relative stereo)
2000 | – | 2000 | CCCCCCC[C@H]1C(=O)C=C[C@H]1OCCCCCC(=O)O
> 10000 | 1000 | 4000 | CCCCCCC[C@H]1C(=O)C=C[C@@H]1OCCCCCC(=O)O

SMILES | EC50 [1] [nM] | EC50 [2] [nM] | EC50 [3] [nM]
CCCCCCC[C@H]1C(=O)C=C(I)[C@H]1OCCCCCC(=O)O (relative stereo) | > 10000 | > 10000 | 60
CCCCCCC[C@H]1C(=O)C=C(I)[C@@H]1OCCCCCC(=O)O (relative stereo) | 500 | 1000 | 30
CCCCCCCN(CCc1ccc(SC(C)(C)C(=O)O)cc1)C(=O)Nc1ccc(F)cc1F [GSK-9578] | 1000 | – | –

Reference: ChEMBL document CHEMBL1153952, “Selective, potent PPARgamma agonists with cyclopentenone core structure” (Bioorg Med Chem Lett, 2009)
